The subject of series [1] is LNCaP cells. Description: Apoptosis after prolonged incubation with NTG alone. Format: cell-based. The settings on record: 0-100 μM NTG, 24-72 h.
The subject of series [2] is DMBA-induced mammary tumors. The settings on record: cited from earlier work.
In series [3] the test system is LNCaP cells. The experiment in a line: Caspase-3 activation by flow cytometry, TRAIL with or without NTG. Format: cell-based. The settings on record: for percentage of cells with activated caspase-3 (maximum): combination of 40 μM NTG and TRAIL, 20 h. The procedure: (§1) Flow cytometric analysis of apoptosis with HTS platform was performed on cells that were plated on a 96-well plate as triplicate samples. After 24 hours in androgen-deprived conditions, the cells were pretreated with 40 μM lignans or lignan derivatives for 1 hour prior to addition of 10 ng/ml izTRAIL. Twenty hours later the plate was centrifuged with a culture plate rotor (1000 rpm, 3 minutes). For analysis of nuclear fragmentation, propidium iodide (PI) buffer (40 mM Na-citrate, 0.3% Triton X-100, 50 μg/ml PI; Sigma) was added to the wells. After 10 minutes incubation at room temperature, the plate was analyzed with LSRII flow cytometer equipped with HTS platform (PE-A channel). The fraction of sub-G0/G1 events (nuclear fragmentation) was gated as a measure of apoptotic cell death. For detection of mitochondrial depolarization, the cells were detached by trypsinization of the cells and incubated in 20 nM tetramethylrhodamine (TMRM; Invitrogen) in warm culture medium for 10 minutes before analysis. The plate was analyzed with LSRII flow cytometer equipped with HTS platform (FSC, PE-A channel). The cells with decreased TMRM incorporation were considered to have undergone mitochondrial membrane depolarization. Activated caspase-3 in cells was labeled with phycerythrin (PE)-conjugated antibody according to manufacturer's protocol (BD Pharmingen) and analyzed by FacsCalibur flow cytometer (FL-2, FSC).
As NTG was identified as the most efficient TRAIL-sensitizing lignan, we analyzed the ability of NTG to affect the efficacy of different TRAIL concentrations in triggering of caspase-3 activation (FIG. 2A). The TRAIL resistant LNCaP cells were cultured in androgen-supplied and androgen-deprived conditions to simulate the effects of androgen-deprivation therapy, and treated for 20 h with TRAIL alone or with the combination of 40 μM NTG and TRAIL. The percentage of cells with activated caspase-3 increased from maximum of 15% to 60% for androgen-deprived, and from 13% to 30% for androgen-supplied cells (Mean±SEM; n≧3) (FIG. 2A).
(A flow cytometer gives signals particle by particle.)

Series [4] relates to non-malignant prostate epithelial RWPE-1 cells. Description: Caspase-3 activation by flow cytometry in a non-malignant prostate cell line. Format: cell-based. The following applies: 40 μM NTG 1 h before izTRAIL in different concentrations, 20 h. The method, then:
The LNCaP prostate cancer cells (clone FGC; EACC) were cultured in RPMI-1640 medium (Sigma-Aldrich) supplemented with 10% fetal calf serum (BioClear), 2 mM L-glutamin, 100 U/ml penicillin, 100 μg/ml streptomycin and 1 mM sodium pyruvate (Sigma-Aldrich). One day prior to treatment medium was changed to phenol red free RPMI-1640 (Gibco) with or without 1 nM synthetic androgen (Mibolerone). This medium was supplemented with 10% charcoal/dextran treated fetal bovine serum (Hyclone), L-glutamine, penicillin and streptomycin. SV40 transformed prostate epithelial RWPE-1 cell line was kindly provided by Professor Olli Kallioniemi. […]
Flow cytometric analysis of apoptosis with HTS platform was performed on cells that were plated on a 96-well plate as triplicate samples. […] After 10 minutes incubation at room temperature, the plate was analyzed with LSRII flow cytometer equipped with HTS platform (PE-A channel). […] The plate was analyzed with LSRII flow cytometer equipped with HTS platform (FSC, PE-A channel). […] Activated caspase-3 in cells was labeled with phycerythrin (PE)-conjugated antibody according to manufacturer's protocol (BD Pharmingen) and analyzed by FacsCalibur flow cytometer (FL-2, FSC). […]

The subject of series [5] is LNCaP cells. The experiment in a line: Clonogenic assay. Format: cell-based. The following applies: 11 days. The method, then:
Five hundred LNCaP cells were plated in 1 ml of culture medium and let to adhere prior to addition of the indicated treatments. After 11 days of incubation, cell colonies were fixed with glutaraldehyde (6.0% v/v), stained with crystal violet (0.5% w/v) and imaged using a digital camera.
To investigate the effects of NTG alone and in combination with TRAIL on colony formation ability, the LNCaP cells were plated in low confluency and treated for 11 days.

For series [6], the system named is LNCaP prostate cancer cells. Description: Flow cytometric screen for sensitization to TRAIL-induced apoptosis (nuclear fragmentation by propidium iodide, mitochondrial depolarization by TMRM). It counts as cell-based. The procedure:
as §1
LNCaP cells were cultured in the absence of 1 nM androgen and incubated with lignan compounds (40 μM) for 1 hour before izTRAIL treatment (10 ng/ml) or control for 20 hours. The samples were screened for nuclear fragmentation by propidium iodide labeling (FIG. 1A) or mitochondrial depolarization by TMRM labeling (FIG. 1B). The plates were analyzed with LSRII flow cytometer equipped with HTS platform (FSC, PE-A channels). The fraction of sub-G0/G1 events (nuclear fragmentation; PE-A channel) was gated as a measure of apoptotic cell death (FIG. 1A) and the cells with decreased TMRM incorporation (PE-A channel) were considered to have undergone mitochondrial membrane depolarization (FIG. 1B). Representative histograms and dot blots for control, TRAIL, nortrachelogenin (NTG) and NTG+TRAIL treatments are viewed.
Importantly, substitution with methyl group at position 8 further increases activity of dibenzylbutyrolactone lignans in sensitization of LNCaP prostate cancer cells to TRAIL-mediated apoptosis (FIG. 8). LNCaP cells were cultured in the absence of 1 nM androgen and incubated with indicated lignan compounds (40 μM) for 1 hour before izTRAIL treatment (10 ng/ml) or control for 20 hours. The cells were disrupted and the nuclei labeled for DNA content with propidium iodide. The samples were analyzed by flow cytometry and the fraction of sub-G0/G1 events (nuclear fragmentation) was detected as a measure of apoptotic cell death (mean±SEM; n=4). (FIG. 8A). Alternatively, LNCaP cells (+/−1 nM androgen) were incubated with 0-100 μM 8-Me-MAT for 1 hour after which total cell lysates were prepared and the samples were analyzed by Western blotting for Akt and phospho-Akt(ser473) expression.

“Also recorded” adds a separate entry of the source.

With `COc1cc(CC2COC(=O)C2(O)Cc2ccc(O)c(OC)c2)ccc1O` (stereo not drawn) [NTG, Nortrachelogenin], the “induction of apoptosis by NTG alone” value with LNCaP cells [1] is given as “did not induce apoptosis”. The “growth of DMBA-induced mammary tumors” value in series [2] (during promotion and early progression) is “did not inhibit the growth of DMBA-induced mammary tumors”. For the same molecule, the endocrine-modulatory effects result in series [2] (long-term experiments) was “weak endocrine-modulatory effects”. Moreover, the “sensitizing effect when medium change directly precedes TRAIL receptor activation” value in the series on LNCaP cells [3] (1 hour pretreatment with 40 μM NTG, culture medium replaced before TRAIL, androgen-deprived and androgen-supplied) is recorded as “completely abolished”. For the same molecule, the “effect of increasing the NTG dose on sensitization to TRAIL” value in the series with LNCaP cells [3] (NTG 40 μM to 100 μM, 10 ng/ml TRAIL) was “did not induce further sensitization”. Moreover, the “percentage of cells with activated caspase-3 (maximum)” value amounted to 60% with LNCaP cells [3] (androgen-deprived LNCaP) and 30% with LNCaP cells [3] (androgen-supplied LNCaP). Moreover, the “sensitization of non-malignant cells to TRAIL (caspase-3 activation)” value in series [4] is listed as “did not display any sensitization to TRAIL”. Moreover, in the series on LNCaP cells [5] (10 ng/ml TRAIL or 40 μM NTG alone), the “colony formation ability, single agent” value was “clearly inhibited the growth of the plated cells”. The “colony formation ability, NTG and TRAIL in combination” value in the series with LNCaP cells [5] (40 μM NTG and 10 ng/ml TRAIL) is reported as “significant death of the cells that were seeded”. For the same molecule, the “capacity to sensitize LNCaP prostate cancer cells to TRAIL-induced apoptosis” value in series [6] (androgen-deprived, 40 μM lignan 1 hour before 10 ng/ml izTRAIL, 20 hours) is listed as “highest capacity of the tested lignan compounds; also recorded: most efficient of the 27 tested lignan compounds; also recorded: clearly enhances the activity”. In addition, the “increase of the apoptotic response compared to TRAIL alone (factor)” value in series [6] (lignan in combination with TRAIL) is reported as 3.2.

(Values after patent US9168243B2, “Pharmaceutical compositions comprising 8-substituted dibenzylbutyrolactone lignans” (priority 2010, dated 2015).)
